# Test results as given in patent publication US20200016159A1, “N3-CYCLICALLY SUBSTITUTED THIENOURACILS AND USE THEREOF” (Bayer Aktiengesellschaft, priority 2016, published 2020).
# Biological target: T1, human adenosine A2b receptor (Homo sapiens, UniProt P29275)
# T1 sequence (P29275 1-332): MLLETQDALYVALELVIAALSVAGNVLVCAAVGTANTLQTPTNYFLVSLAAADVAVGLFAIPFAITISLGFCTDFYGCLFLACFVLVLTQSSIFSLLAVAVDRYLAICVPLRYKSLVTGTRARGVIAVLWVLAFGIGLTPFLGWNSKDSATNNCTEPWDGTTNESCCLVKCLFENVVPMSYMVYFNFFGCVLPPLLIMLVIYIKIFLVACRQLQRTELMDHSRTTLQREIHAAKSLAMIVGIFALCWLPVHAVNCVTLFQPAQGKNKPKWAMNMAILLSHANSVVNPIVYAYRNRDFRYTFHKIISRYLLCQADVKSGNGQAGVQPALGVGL
# Experiment: Cellular in vitro reporter gene test for A2b receptor activity (antagonism of NECA)
# Type: cell-based
# Set-up: expressed in transfected cells; host or cells: CHO-K1 (Chinese hamster ovary) with CRE-luciferase reporter
# Settings: recombinant CHO-K1 cells, CRE-luciferase reporter, co-incubation with EC50 concentration of NECA, 3 hours
# Procedure: The identification of selective antagonists of the human adenosine A2b receptor and the quantification of the efficacy and selectivity of the compounds according to the invention was carried out with the aid of recombinant cell lines for the human adenosine receptors A1, A2a, A2b and A3. These cell lines were originally derived from an ovarepithelial cell of the hamster (Chinese Hamster Ovary, CHO-K1, American Type Culture Collection, Manassas, Va. 20108, USA). In addition to the respective recombinantly expressed adenosine receptor for testing the efficacy at the A1, A2a and A2b receptors, the cell lines contain a reporter gene construct where expression of the firefly (Photinus pyralis) luciferase is under the control of a promoter which can be activated via intracellular signal cascades by stimulation of the receptors with the (not subtype-selective) adenosine receptor agonist NECA (5′-N-ethylcarboxamidoadenosine) [S. J. Hill, J. G. Baker, S. Rhees, Curr. Opin. Pharmacol. 1, 526-532 (2001)].
# In the case of the A2a and A2b cell lines, this is a minimal promoter having a plurality of cAMP-responsive elements (CRE). Stimulation of the Gs-coupled A2b or A2a receptors by NECA ultimately leads, via formation of cAMP, to CRE-dependent induction of luciferase expression, which is detected 3 hours after the start of the incubation with NECA using a detection solution in a suitable luminometer. For testing the antagonists, initially, in a pre-experiment, the concentration of NECA which, at the test day in question, results in half-maximum stimulation of luciferase expression (EC50 concentration) is determined. By joint incubation of this EC50 concentration of NECA with the substances to be tested, it is possible to determine their antagonistic activity.
# Table 1 below lists the IC50 values from the A2b receptor assay for individual working examples (in some cases as means of a plurality of independent individual determinations and rounded to two significant figures; it may also be the case here that various independent preparations of the respective working example have been used): […]
row,Compound,IC50 [nM]
1,"Cc1c(Cn2cc[nH]c2=O)sc2c1c(=O)n(C1CC1)c(=O)n2CC1CCCO1 (single isomer, unassigned) [Example 48, 3-Cyclopropyl-5-methyl-6-[(2-oxo-2,3-dihydro-H-imidazol-1-yl)methyl]-1-(tetrahydrofuran-2-ylmethyl)thieno[2,3-d]pyrimidine-2,4(1H,3H)-dione]",56
2,"Cc1c(CN2CCNC2=O)sc2c1c(=O)n(C1(C)CC1)c(=O)n2CC1CC1(F)F (single isomer, unassigned) [Example 64, 1-[(2,2-Difluorocyclopropyl)methyl]-5-methyl-3-(1-methylcyclopropyl)-6-[(2-oxoimidazolidin-1-yl)methyl]thieno[2,3-d]pyrimidine-2,4(1H,3H)-dione]",13
3,"Cc1c(CN2CCNC2=O)sc2c1c(=O)n(C1(C)CC1)c(=O)n2CC1CC1(F)F (single isomer, unassigned) [Example 65, 1-[(2,2-Difluorocyclopropyl)methyl]-5-methyl-3-(1-methylcyclopropyl)-6-[(2-oxoimidazolidin-1-yl)methyl]thieno[2,3-d]pyrimidine-2,4(1H,3H)-dione]",36
4,"Cc1c(Cn2nc[nH]c2=O)sc2c1c(=O)n(C1(C)CC1)c(=O)n2CC1CC1(F)F (single isomer, unassigned) [Example 67, 1-[(2,2-Difluorocyclopropyl)methyl]-5-methyl-3-(1-methylcyclopropyl)-6-[(5-oxo-4,5-dihydro-1H-1,2,4-triazol-1-yl)methyl]thieno[2,3-d]pyrimidine-2,4(1H,3H)-dione]",54
5,"Cc1c(Cn2nc[nH]c2=O)sc2c1c(=O)n(C1(C)CC1)c(=O)n2CC1CC1(F)F (single isomer, unassigned) [Example 68, 1-[(2,2-Difluorocyclopropyl)methyl]-5-methyl-3-(1-methylcyclopropyl)-6-[(5-oxo-4,5-dihydro-1H-1,2,4-triazol-1-yl)methyl]thieno[2,3-d]pyrimidine-2,4(1H,3H)-dione]",160

# Now from value to compound:
row,IC50 [nM],Compound
1,20,"Cc1c(CN2CCNC2=O)sc2c1c(=O)n(C1CC1C)c(=O)n2CCCF (single isomer, unassigned) [Example 91, 1-(3-Fluoropropyl)-5-methyl-3-(2-methylcyclopropyl)-6-[(2-oxoimidazolidin-1-yl)methyl]thieno[2,3-d]pyrimidine-2,4(1H,3H)-dione]"
2,2.8,"Cc1c(CN2CCNC2=O)sc2c1c(=O)n(C1CC1C)c(=O)n2CCCF (single isomer, unassigned) [Example 92, 1-(3-Fluoropropyl)-5-methyl-3-(2-methylcyclopropyl)-6-[(2-oxoimidazolidin-1-yl)methyl]thieno[2,3-d]pyrimidine-2,4(1H,3H)-dione]"
3,26,"COCCn1c(=O)n(C2CC2C)c(=O)c2c(C)c(CN3CCNC3=O)sc21 (single isomer, unassigned) [Example 95, 1-(2-Methoxyethyl)-5-methyl-3-(2-methylcyclopropyl)-6-[(2-oxoimidazolidin-1-yl)methyl]thieno[2,3-d]pyrimidine-2,4(1H,3H)-dione]"
4,140,"Cc1c(CN2CCNC2=O)sc2c1c(=O)n(C1CC1(C)C)c(=O)n2CCCF (single isomer, unassigned) [Example 98, 3-(2,2-Dimethylcyclopropyl)-1-(3-fluoropropyl)-5-methyl-6-[(2-oxoimidazolidin-1-yl)methyl]thieno[2,3-d]pyrimidine-2,4(1H,3H)-dione]"
5,28,"Cc1c(CN2CCNC2=O)sc2c1c(=O)n(C1CC1(C)C)c(=O)n2CCCF (single isomer, unassigned) [Example 99, 3-(2,2-Dimethylcyclopropyl)-1-(3-fluoropropyl)-5-methyl-6-[(2-oxoimidazolidin-1-yl)methyl]thieno[2,3-d]pyrimidine-2,4(1H,3H)-dione]"
6,32,"Cc1c(CN2CCNC2=O)sc2c1c(=O)n(C1CC1(C)C)c(=O)n2CCC(F)(F)F (single isomer, unassigned) [Example 101, 3-(2,2-Dimethylcyclopropyl)-5-methyl-6-[(2-oxoimidazolidin-1-yl)methyl]-1-(3,3,3-trifluoropropyl)thieno[2,3-d]pyrimidine-2,4(1H,3H)-dione]"
